Results as given in ChEMBL document CHEMBL2216751, “PI3Kδ and PI3Kγ as targets for autoimmune and inflammatory diseases” (J Med Chem, 2012).

Legend:
Mus musculus [1] = assay: Antiinflammatory activity in cigarette smoking-induced COPD BALB/c mouse model assessed as reduction in pulmonary neutrophilia at 0.4 % administered as aerosolized formulation; type: functional; design: scale not given: the % may be the effect or the level left
Rattus norvegicus [2] = assay: Antiinflammatory activity in Sprague-Dawley rat assessed as reduction in PAF/dextran-induced hind paw edema at 5 mg/kg; type: functional; design: scale not given: the % may be the effect or the level left
Mus musculus [3] = assay: Antiinflammatory activity in ovalbumin-sensitized mouse asthma model assessed as reduction in airway-hyper responsiveness at 0.4 % administered as aerosolized formulation for 12 to 14 days; type: functional; design: scale not given: the % may be the effect or the level left
Mus musculus [4] = assay: Antiinflammatory activity in LPS-induced COPD BALB/c mouse model assessed as reduction in pulmonary neutrophilia at 0.4 % administered as aerosolized formulation; type: functional; design: scale not given: the % may be the effect or the level left
Sus scrofa = assay: Cardioprotective activity in pig MI model assessed as reduction in coronary artery occlusion at 0.5 mg/kg, iv administered as single bolus dose post 90 mins of reperfusion measured after 24 hrs; type: functional; design: scale not given: the % may be the effect or the level left
Mus musculus [5] = assay: Antiinflammatory activity in ovalbumin-sensitized mouse asthma model assessed as reduction in lung eosinophils at 0.4 % administered as aerosolized formulation for 12 to 14 days; type: functional; design: scale not given: the % may be the effect or the level left
Rattus norvegicus [6] = assay: Cardioprotective activity in Sprague-Dawley rat MI model assessed as reduction in coronary artery occlusion at 0.05 to 5 mg/kg, iv administered as single bolus dose post 60 mins of reperfusion measured after 24 hrs; type: functional; design: scale not given: the % may be the effect or the level left; conditions: dose mg/kg 0.05-5
[7] = target: T1, Phosphatidylinositol 4,5-bisphosphate 3-kinase catalytic subunit delta isoform (Mus musculus, UniProt O35904); assay: Inhibition of PI3Kdelta-mediated AKT phosphorylation in mouse Raw 264.7 cells by immunoassay; type: cell-based
T1 sequence (O35904 whole entry): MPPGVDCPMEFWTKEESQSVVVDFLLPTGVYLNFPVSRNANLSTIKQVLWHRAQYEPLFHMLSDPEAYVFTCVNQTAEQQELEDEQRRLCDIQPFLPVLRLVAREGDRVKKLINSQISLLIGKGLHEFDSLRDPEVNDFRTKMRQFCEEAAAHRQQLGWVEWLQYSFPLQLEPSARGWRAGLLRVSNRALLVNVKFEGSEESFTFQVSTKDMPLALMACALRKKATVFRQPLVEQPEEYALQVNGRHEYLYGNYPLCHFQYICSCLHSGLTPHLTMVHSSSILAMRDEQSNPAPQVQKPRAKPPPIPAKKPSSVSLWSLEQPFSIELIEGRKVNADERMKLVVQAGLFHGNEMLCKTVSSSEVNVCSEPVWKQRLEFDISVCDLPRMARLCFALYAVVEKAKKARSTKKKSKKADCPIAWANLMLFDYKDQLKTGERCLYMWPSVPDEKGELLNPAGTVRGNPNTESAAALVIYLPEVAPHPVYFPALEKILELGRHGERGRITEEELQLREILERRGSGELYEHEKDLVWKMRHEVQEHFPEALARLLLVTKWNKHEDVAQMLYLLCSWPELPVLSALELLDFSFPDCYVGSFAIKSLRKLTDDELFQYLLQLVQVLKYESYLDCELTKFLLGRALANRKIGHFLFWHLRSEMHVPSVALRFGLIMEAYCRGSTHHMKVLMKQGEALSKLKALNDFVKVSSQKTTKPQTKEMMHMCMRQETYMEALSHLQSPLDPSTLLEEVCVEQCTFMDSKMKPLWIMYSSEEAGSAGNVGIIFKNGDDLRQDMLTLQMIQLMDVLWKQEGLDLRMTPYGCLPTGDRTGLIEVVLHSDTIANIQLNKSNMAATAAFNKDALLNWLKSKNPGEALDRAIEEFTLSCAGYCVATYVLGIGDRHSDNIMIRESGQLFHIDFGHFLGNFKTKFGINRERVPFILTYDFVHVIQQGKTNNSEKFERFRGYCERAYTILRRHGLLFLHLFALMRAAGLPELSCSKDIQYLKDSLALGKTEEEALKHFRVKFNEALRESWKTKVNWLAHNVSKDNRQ

[8] = target: T2, Phosphatidylinositol 4,5-bisphosphate 3-kinase catalytic subunit delta isoform (Homo sapiens, UniProt O00329); conditions: read-out: IC50
T2 sequence (O00329 whole entry): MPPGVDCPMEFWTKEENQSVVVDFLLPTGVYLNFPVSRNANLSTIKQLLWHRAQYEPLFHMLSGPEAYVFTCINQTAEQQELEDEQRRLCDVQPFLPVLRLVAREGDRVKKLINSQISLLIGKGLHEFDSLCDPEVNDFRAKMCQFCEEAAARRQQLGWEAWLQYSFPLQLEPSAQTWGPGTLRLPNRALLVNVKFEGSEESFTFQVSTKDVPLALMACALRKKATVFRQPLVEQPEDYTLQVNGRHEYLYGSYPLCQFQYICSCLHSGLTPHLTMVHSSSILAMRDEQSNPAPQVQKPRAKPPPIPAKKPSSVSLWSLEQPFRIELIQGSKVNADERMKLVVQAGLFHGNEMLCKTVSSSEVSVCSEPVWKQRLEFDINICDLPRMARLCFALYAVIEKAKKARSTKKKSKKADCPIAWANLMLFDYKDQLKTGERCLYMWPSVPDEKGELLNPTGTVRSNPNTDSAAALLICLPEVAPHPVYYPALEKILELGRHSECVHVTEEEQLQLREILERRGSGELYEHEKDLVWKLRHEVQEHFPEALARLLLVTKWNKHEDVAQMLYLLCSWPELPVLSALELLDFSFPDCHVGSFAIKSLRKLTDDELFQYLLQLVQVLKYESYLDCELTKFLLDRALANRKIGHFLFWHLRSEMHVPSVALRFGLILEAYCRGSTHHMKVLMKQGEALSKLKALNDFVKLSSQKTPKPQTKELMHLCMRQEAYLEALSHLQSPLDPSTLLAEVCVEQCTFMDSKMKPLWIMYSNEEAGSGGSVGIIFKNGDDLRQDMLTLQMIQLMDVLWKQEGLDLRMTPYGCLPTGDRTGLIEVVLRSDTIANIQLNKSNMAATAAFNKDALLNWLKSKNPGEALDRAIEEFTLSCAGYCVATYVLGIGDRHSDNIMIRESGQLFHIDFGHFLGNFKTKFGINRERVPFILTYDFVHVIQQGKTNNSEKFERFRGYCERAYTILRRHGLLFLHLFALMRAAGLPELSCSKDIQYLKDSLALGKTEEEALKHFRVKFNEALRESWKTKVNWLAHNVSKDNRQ

[9] = target: T2, Phosphatidylinositol 4,5-bisphosphate 3-kinase catalytic subunit delta isoform; assay: Inhibition of PI3Kdelta assessed as inhibition of H2O2-induced AKT phosphorylation by cell-based assay
[10] = target: T2, Phosphatidylinositol 4,5-bisphosphate 3-kinase catalytic subunit delta isoform; assay: Inhibition of PI3Kdelta using phosphatidylinositol as substrate by gamma33P[ATP] incorporation assay
Mus musculus [11] = organism: Mus musculus; assay: Antiarthritic activity in adjuvant-induced rheumatoid arthritis mouse model assessed as reduction in disease clinical score; type: functional; design: scale not given: the % may be the effect or the level left
[12] = target: T2, Phosphatidylinositol 4,5-bisphosphate 3-kinase catalytic subunit delta isoform; assay: Inhibition of PI3Kdelta in human PBMC assessed as inhibition of anti-IgM-induced AKT phosphorylation by FACS analysis

Nc1nc(N)c2nc(-c3cccc(O)c3)c(-c3cccc(O)c3)nc2n1 [TG100-115]
Activity (Mus musculus [1]): >=81%
Activity (Rattus norvegicus [2]): >=62%
Activity (Mus musculus [3]): 50%
Activity (Mus musculus [4]): 42%
Activity (Sus scrofa): 35%
Activity (Mus musculus [5]): 79%
Activity (Rattus norvegicus [6]): >=40%

O=C1NC(=O)/C(=C/c2ccc3ncnc(N4CCC(C(F)(F)F)CC4)c3n2)S1
IC50 [7]: < 10 nM
IC50 [8]: 6 nM

C#Cc1cccc2nc(Cn3nc(-c4cccc(O)c4)c4c(N)ncnc43)n(Cc3cccc(OC)c3)c(=O)c12
IC50 [9]: 570 nM

O=c1cc(N2CCOCC2)oc2c(-c3ccccc3)cccc12 [LY-294002]
IC50 [10]: 1050 nM

O=C1NC(=O)/C(=C/c2ccc3nccnc3c2)S1
Activity (Mus musculus [11]): 40%

COc1cc(Nc2nc3ccccc3nc2NS(=O)(=O)c2ccc(CN(C)C)cc2)cc(OC)c1
IC50 [12]: 16 nM
